MIC data for four molecules are collected here from US4278686A, “Carbapenum derivatives, a process for their preparation and their use in pharmaceutical compositions and intermediates” (Beecham Group Limited, priority 1978, dated 1981).

Structures are written as SMILES. Read-outs that look alike come from different tables or passages of the source. Where only a bound is given, the exact number is not on record here.

Common to all, as to type: cell-based
In experiment [1] the test system is Citrobacter freundii E8. The experiment in a line: minimum inhibitory concentration, Citrobacter freundii E8 (DST agar+10% horse blood). Here is the method:
(§1) The minimum inhibitory concentrations (MIC) of the compound (e54) was determined using a standard DST agar+10% horse blood substrate. The tests used an undiluted inoculum of bacteria. […]
(§2) The minimum inhibitory concentrations (MIC) of this compound was determined using a standard DST agar+10% horse blood substrate.
(§3) The minimum inhibitory concentrations (MIC) of this compound was determined using a standard DST agar+10% horse blood substrate. The tests used an undiluted inoculum of bacteria.

The test system of experiment [2] is Enterobacter cloacae N1. The experiment in a line: minimum inhibitory concentration, Enterobacter cloacae N1 (DST agar+10% horse blood). Here is the method: as §1, §2, §3
Experiment [3] deals with Escherichia coli 0111. The experiment in a line: minimum inhibitory concentration, Escherichia coli 0111 (DST agar+10% horse blood). Here is the method:
as §1, §2, §3

Experiment [4] has as its system Escherichia coli JT 39. Put plainly: minimum inhibitory concentration, Escherichia coli JT 39 (DST agar+10% horse blood). Here is the method:
as §1, §2, §3

For experiment [5], the system named is Klebsiella aerogenes A. The experiment in a line: minimum inhibitory concentration, Klebsiella aerogenes A (DST agar+10% horse blood). Here is the method: as §1, §2, §3
The subject of experiment [6] is Proteus mirabilis C977. The experiment in a line: minimum inhibitory concentration, Proteus mirabilis C977 (DST agar+10% horse blood). Here is the method: as §1, §2, §3
For experiment [7], the system named is Proteus morganii I580. Put plainly: minimum inhibitory concentration, Proteus morganii I580 (DST agar+10% horse blood). Particulars: Morganella morganii, Proteus morganii I580, DST agar+10% horse blood, read-out: MIC. Here is the method:
The minimum inhibitory concentrations (MIC) of the compound (e54) was determined using a standard DST agar+10% horse blood substrate. The tests used an undiluted inoculum of bacteria.
Sodium (5R,6S)-3-(2-acetamidoethylthio)--6-ethyl-7-oxo-1-azabicyclo[3.2.0]-hept-2-ene-2-carboxylate [drawing 60] p-Methoxycarbonylbenzyl (5R,6S)-3-(2-acetamidoethylthio)-6-ethyl-7-oxo-1-azabicyclo[3.2.0]hept-2-ene-2-carboxylate (e58) (18 mg) was added to the cathodic compartment of an H-type divided two-compartment electrochemical cell, with a mercury cathode and a platinum anode. The cell contained degassed 0.1 M n-Bu4 NI in dimethylformamide as electrolyte. The volume of the catholyte was about 15 ml [glacial acetic acid (about 10 mg) added] and the volume of the anolyte was about 8 ml. A potentiostat was employed to fix the potential of the cathode at -1.9 V with respect to the standard calomel electrode, and the initial current, about 56 mA, fell to about 15 mA after about 15 min. The catholyte was removed from the cell and the solvent was evaporated in vacuo. The residue was taken up in CH2 Cl2 (10 ml) and washed with water (10 ml). The aqueous phase was separated and washed with CH2 Cl2. The aqueous phase, containing the tetrabutylammonium salt corresponding to (e63) was passed through an Amberlite IR 120 (Na form) column (17×1 cm) and the eluate was reduced to low volume by evaporation in vacuo. The residue was passed through a Biogel P-2 column, to yield fractions containing sodium (5R,6S)-3-(2-acetamidoethylthio)-6-ethyl-7-oxo-1-azabicyclo[3.2.0]hept-2-ene-2-carboxylate (e63) having λmax 298 nm. The minimum inhibitory concentrations (MIC) of this compound was determined using a standard DST agar+10% horse blood substrate.
Sodium (5R,6S)-3-[(E)-2-acetamidoethenylthio]-6-ethyl-7-oxo-1-azabicyclo[3.2.0]hept-2-ene-2-carboxylate [drawing 68] p-Methoxycarbonylbenzyl (5R,6S)-3-[(E)-2-acetamidoethenylthio]-6-ethyl-7-oxo-1-azabicyclo[3.2.0]hept-2-ene-2-carboxylate (e72) (64 mg) in solution in 0.1 M (n-C4 H9)4 NBF4 in dry DMF was added to the cathodic compartment of a divided cylindrical electrochemical cell, with a mercury cathode and platinum anode. The volume of electrolyte in the cathodic compartment was about 25 ml, and in the anodic compartment about 10 ml. Acetic acid (12 mg) was added to the cathodic compartment and ethanol (250 mg) was added to the anodic compartment. The cell was degassed by passing argon for 30 min. The potentiostat was engaged to maintain the potential of the cathode at -1.9 V w.r.t. standard calomel electrode. The initial current (40 mA) fell to about 5 mA after 25 min. The solvent was removed from the catholyte by evaporation in vacuo and the residual oil was taken up in CH2 Cl2 (20 ml) and extracted with water (15 ml) containing sodium tetrafluoroborate (100 mg). The aqueous extract was washed with CH2 Cl2 and then passed down an Amberlite 1R 120 column (1×20 cm) in the sodium form. The volume of the eluate was reduced to about 5 ml by evaporation in vacuo and loaded onto a Biogel P-2 column (18×3 cm). Elution with water yielded fractions containing sodium (5R,6S)-3-[(E)-2-acetamidoethenylthio]-6-ethyl-7-oxo-1-azabicyclo[3.2.0]hept-2-ene-2-carboxylate (e73) λmax 308 nm. The minimum inhibitory concentrations (MIC) of this compound was determined using a standard DST agar+10% horse blood substrate.
Sodium (5R,6R)-3-[(E)-2-acetamidoethenylthio]-6-(1-benzylthioethyl)-7-oxo-1-azabicyclo[3.2.0]hept-2-ene-2-carboxylate [drawing 87] The least polar crystalline isomer of the ester (e93) (40 mg) obtained in Example 70 was added to a mixture of 5% Pd on C (60 mg) in 20% aqueous dioxan (5 ml) which had been prehydrogenated for 0.5 h. Hydrogenation was continued for 4 h and the mixture was filtered through Celite after adding NaHCO3 (7 mg) and water (10 ml). The solution was concentrated to a volume of about 10 ml and was then washed with ethyl acetate (3×30 ml). […]

Experiment [8] relates to Proteus rettgeri WM16. The experiment in a line: minimum inhibitory concentration, Proteus rettgeri WM16 (DST agar+10% horse blood). Particulars: Providencia rettgeri. Here is the method: as §1, §2, §3
The subject of experiment [9] is Proteus vulgaris WO91. The experiment in a line: minimum inhibitory concentration, Proteus vulgaris WO91 (DST agar+10% horse blood). Here is the method: as §1, §2, §3
The subject of experiment [10] is Pseudomonas aeruginosa A. Put plainly: minimum inhibitory concentration, Pseudomonas aeruginosa A (DST agar+10% horse blood). Here is the method:
as §1, §2, §3

For experiment [11], the system named is Salmonella typhimurium CT10. The experiment in a line: minimum inhibitory concentration, Salmonella typhimurium CT10 (DST agar+10% horse blood). Particulars: Salmonella enterica. Here is the method:
as §1, §2, §3

Experiment [12] has as its system Serratia marcescens US20. The experiment in a line: minimum inhibitory concentration, Serratia marcescens US20 (DST agar+10% horse blood). Here is the method:
as §1, §2, §3

Experiment [13] concerns Shigella sonnei MB 11967. Put plainly: minimum inhibitory concentration, Shigella sonnei MB 11967 (DST agar+10% horse blood). Here is the method: as §1, §2, §3
Experiment [14] deals with Bacillus subtilis A. Put plainly: minimum inhibitory concentration, Bacillus subtilis A (DST agar+10% horse blood). Here is the method: as §1, §2, §3
In experiment [15] the test system is Staphylococcus aureus Oxford. Put plainly: minimum inhibitory concentration, Staphylococcus aureus Oxford (DST agar+10% horse blood). Here is the method:
as §1, §2, §3

Experiment [16] has as its system Staphylococcus aureus Russell. Put plainly: minimum inhibitory concentration, Staphylococcus aureus Russell (DST agar+10% horse blood). Here is the method: as §1, §2, §3
Experiment [17] deals with Staphylococcus aureus 1517. Put plainly: minimum inhibitory concentration, Staphylococcus aureus 1517 (DST agar+10% horse blood). Here is the method:
as §1, §2, §3

In experiment [18] the test system is Streptococcus faecalis I. Put plainly: minimum inhibitory concentration, Streptococcus faecalis I (DST agar+10% horse blood). Particulars: Enterococcus faecalis. Here is the method: as §1, §2, §3
The subject of experiment [19] is Streptococcus pneumoniae CN33. The experiment in a line: minimum inhibitory concentration, Streptococcus pneumoniae CN33 (DST agar+10% horse blood). Here is the method:
as §1, §2, §3

Experiment [20] deals with Streptococcus pyogenes CN10. Put plainly: minimum inhibitory concentration, Streptococcus pyogenes CN10 (DST agar+10% horse blood). Here is the method: as §1, §2, §3
Experiment [21] relates to E. coli ESS. Put plainly: minimum inhibitory concentration, E. coli ESS (DST agar+10% horse blood). The settings on record: Escherichia coli. Here is the method: as §1, §2, §3
[22] abbreviates: Enterobacter cloacae N1, undiluted inoculum.
The mark [23] stands for this setting: Enterobacter cloacae, Enterobactor cloacae N1.

As usually defined, the MIC is the lowest concentration found to suppress growth. For the molecule `CSC(C)[C@H]1C(=O)N2C(C(=O)[O-])=C(S/C=C/NC(C)=O)C[C@H]12.[Na+]` (single isomer, unassigned) [e101], the minimal inhibitory concentration (MIC) in experiment [1] (undiluted inoculum) turned out to be 5 µg/mL; in experiment [2] (setting [22]) it was 2.5 µg/mL; in [3] (undiluted inoculum) it was 2.5 µg/mL; in [4] (JT39, undiluted inoculum), 2.5 µg/mL; in experiment [5] (undiluted inoculum), 2.5 µg/mL; in experiment [6] (undiluted inoculum), 12.5 µg/mL. The MIC was determined as 12.5 µg/mL in [7] (undiluted inoculum); 5 µg/mL in [8] (undiluted inoculum); 5 µg/mL in experiment [9] (undiluted inoculum); 50 µg/mL in experiment [10] (undiluted inoculum); 1.2 µg/mL in [11] (undiluted inoculum); 5 µg/mL in experiment [12] (undiluted inoculum). Moreover, the minimum inhibitory concentration (MIC) in experiment [13] (MB11967, undiluted inoculum) amounted to 1.2 µg/mL; in experiment [14] (undiluted inoculum), 1.2 µg/mL; in experiment [15] (undiluted inoculum) it was 0.5 µg/mL; in experiment [16] (undiluted inoculum) it was 0.5 µg/mL; in experiment [17] (undiluted inoculum) it was 12.5 µg/mL; in experiment [18] (undiluted inoculum) it was 12.5 µg/mL. The MIC was 0.1 µg/mL in [19] (undiluted inoculum), 0.2 µg/mL in experiment [20] (undiluted inoculum) and 1.2 µg/mL in experiment [21] (undiluted inoculum).
On to `CC[C@H]1C(=O)N2C(C(=O)[O-])=C(S/C=C/NC(C)=O)C[C@H]12.[Na+]` [e54, sodium (5R,6R)-3-[(E)-2-acetamidoethenylthio]-6-ethyl-7-oxo-1-azabicyclo[3.2.0]hept-2-ene-2-carboxylate], for which the MIC in experiment [1] (undiluted inoculum) came to 12.5 µg/mL; in experiment [2] (setting [22]), 25 µg/mL; in [3] (undiluted inoculum), 3.1 µg/mL; in experiment [4] (JT39, undiluted inoculum), 3.1 µg/mL; in experiment [5] (undiluted inoculum) it was 3.1 µg/mL; in experiment [6] (undiluted inoculum), 25 µg/mL. Also, the minimum inhibitory concentration (MIC) was 25 µg/mL in experiment [7] (undiluted inoculum); 25 µg/mL in experiment [8] (undiluted inoculum); 25 µg/mL in [9] (undiluted inoculum); more than 50 µg/mL in experiment [10] (undiluted inoculum); 3.1 µg/mL in experiment [11] (undiluted inoculum); 12.5 µg/mL in [12] (undiluted inoculum). The MIC in experiment [13] (MB11967, undiluted inoculum) was determined as 3.1 µg/mL; in experiment [14] (undiluted inoculum), 0.8 µg/mL; in experiment [15] (undiluted inoculum), 0.4 µg/mL; in experiment [16] (undiluted inoculum), 0.4 µg/mL; in experiment [17] (undiluted inoculum), 12.5 µg/mL; in [18] (undiluted inoculum) it was 25 µg/mL. Also, the MIC in [19] (undiluted inoculum) was 0.1 µg/mL; in experiment [20] (undiluted inoculum) it was 0.2 µg/mL; in [21] (undiluted inoculum) it was 0.4 µg/mL.
Turning to `CC[C@@H]1C(=O)N2C(C(=O)[O-])=C(SCCNC(C)=O)C[C@H]12.[Na+]` [e63, sodium (5R,6S)-3-(2-acetamidoethylthio)-6-ethyl-7-oxo-1-azabicyclo[3.2.0]hept-2-ene-2-carboxylate], the MIC in experiment [1] is 2.5 µg/mL; in experiment [2] (setting [23]), 20 µg/mL; in experiment [3], 2.5 µg/mL; in experiment [4] (JT39), 10 µg/mL; in experiment [5], 1.2 µg/mL; in [6], 10 µg/mL. In addition, the minimum inhibitory concentration (MIC) in experiment [7] is 40 µg/mL; in experiment [8], 10 µg/mL; in [9], 5 µg/mL; in [10] it was more than 40 µg/mL; in [11], 2.5 µg/mL; in experiment [12], 10 µg/mL. The MIC in [13] (MB11967) came to 2.5 µg/mL; in experiment [15], 0.6 µg/mL; in [16], 0.6 µg/mL; in [17] it was 10 µg/mL; in experiment [18], 40 µg/mL; in experiment [20], 0.1 µg/mL. For the same molecule, the MIC in experiment [21] is 1.2 µg/mL.
Take `CC[C@@H]1C(=O)N2C(C(=O)[O-])=C(S/C=C/NC(C)=O)C[C@H]12.[Na+]` [e73, sodium (5R,6S)-3-[(E)-2-acetamidoethenylthio]-6-ethyl-7-oxo-1-azabicyclo[3.2.0]hept-2-ene-2-carboxylate]: the minimal inhibitory concentration (MIC) was 2.5 µg/mL in experiment [1]; 2.5 µg/mL in [2] (setting [23]); 2.5 µg/mL in experiment [3]; 10 µg/mL in [4] (JT39); 2.5 µg/mL in [5]; 10 µg/mL in experiment [6]. Further, the MIC in [7] is 5 µg/mL; in [8], 10 µg/mL; in experiment [9] it was 10 µg/mL; in experiment [10], more than 40 µg/mL; in [11], 1.2 µg/mL; in [12], 5 µg/mL. The minimal inhibitory concentration (MIC) in experiment [13] (MB11967) is 2.5 µg/mL; in [14], 1.2 µg/mL; in [15], 0.6 µg/mL; in experiment [16], 2.5 µg/mL; in experiment [17], more than 40 µg/mL; in experiment [18] it was 40 µg/mL. The results for the minimal inhibitory concentration (MIC) in experiment [19] and in experiment [21] were not above 0.1 µg/mL and 0.3 µg/mL, respectively.
